Results reported in ChEMBL document CHEMBL1201862, “PubChem BioAssay data set” (2004).
Calls of active or inactive are those of the source.

Tests used:
Bcl-2-like protein 10 = Bcl-2-like protein 10 (Homo sapiens, UniProt Q9HD36); assay: displacers of TR3 peptide from Bcl-B, primary screen, selectivity assay for Bfl-1 inhibitor project, biochemical, fluorescence polarization, FITC-TR3 peptide (AID 748);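 note: fluorescence polarization from a fluorescein-labelled TR3 peptide binding purified Bcl-B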
Chain of Bcl-2-like protein 10 (Q9HD36 whole entry): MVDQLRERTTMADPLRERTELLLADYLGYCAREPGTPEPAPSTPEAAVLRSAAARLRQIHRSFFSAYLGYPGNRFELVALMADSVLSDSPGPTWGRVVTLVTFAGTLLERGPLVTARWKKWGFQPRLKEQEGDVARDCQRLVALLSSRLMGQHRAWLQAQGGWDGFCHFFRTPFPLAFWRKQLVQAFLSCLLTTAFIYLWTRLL

Protein skinhead-1 = biological target: T1, Protein skinhead-1 (Caenorhabditis elegans, UniProt P34707); format: functional
T1 sequence (P34707 whole entry): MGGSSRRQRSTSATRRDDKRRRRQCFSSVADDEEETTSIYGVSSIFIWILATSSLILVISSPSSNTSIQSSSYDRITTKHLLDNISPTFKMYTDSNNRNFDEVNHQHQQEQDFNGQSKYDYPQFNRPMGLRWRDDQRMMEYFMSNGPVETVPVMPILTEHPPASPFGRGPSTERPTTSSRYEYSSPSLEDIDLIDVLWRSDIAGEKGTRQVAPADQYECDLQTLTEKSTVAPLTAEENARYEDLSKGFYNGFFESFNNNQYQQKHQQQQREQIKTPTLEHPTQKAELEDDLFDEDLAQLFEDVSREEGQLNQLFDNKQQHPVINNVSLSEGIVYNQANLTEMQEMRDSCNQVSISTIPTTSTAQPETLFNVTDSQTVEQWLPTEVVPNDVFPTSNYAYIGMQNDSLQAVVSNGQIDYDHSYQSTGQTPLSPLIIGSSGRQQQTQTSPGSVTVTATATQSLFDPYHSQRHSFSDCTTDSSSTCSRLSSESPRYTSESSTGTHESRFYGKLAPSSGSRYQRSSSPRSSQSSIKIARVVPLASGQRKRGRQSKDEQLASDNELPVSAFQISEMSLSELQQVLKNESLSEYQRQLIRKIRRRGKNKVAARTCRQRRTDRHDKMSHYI

[1] = biological target: Serine/threonine-protein phosphatase (Homo sapiens, UniProt Q9BPW0); assay: Counterscreen for inhibitors of PP1: fluorescence-based biochemical high throughput dose response assay to identify inhibitors of Protein Phosphatase 5 (PP5). [Related pubchem assays: 2034 (Summary (PP5 inhibitors)), 1987 (PP5 inhibitors in singlate), 2235 (PP1 inhibitors in singlate)]
Chain of Serine/threonine-protein phosphatase (Q9BPW0 whole entry): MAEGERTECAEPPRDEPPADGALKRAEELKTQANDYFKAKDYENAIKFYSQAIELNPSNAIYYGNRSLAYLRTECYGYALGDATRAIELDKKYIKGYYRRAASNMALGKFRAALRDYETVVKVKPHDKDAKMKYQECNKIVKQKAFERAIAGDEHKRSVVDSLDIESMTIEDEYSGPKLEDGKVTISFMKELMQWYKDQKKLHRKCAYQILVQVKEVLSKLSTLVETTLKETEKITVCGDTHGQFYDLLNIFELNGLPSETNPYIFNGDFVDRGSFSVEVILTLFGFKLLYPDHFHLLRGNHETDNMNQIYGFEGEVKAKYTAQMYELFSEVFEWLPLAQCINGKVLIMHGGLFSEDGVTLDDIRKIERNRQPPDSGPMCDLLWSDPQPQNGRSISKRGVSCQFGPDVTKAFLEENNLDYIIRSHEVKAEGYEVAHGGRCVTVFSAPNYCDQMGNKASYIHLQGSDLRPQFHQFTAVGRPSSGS

[2] = biological target: Serine/threonine-protein phosphatase PP1-alpha catalytic subunit (Homo sapiens, UniProt P62136); assay: PP1 phosphatase inhibitors, dose response, biochemical, fluorescence (AID 2403);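 note: phosphatase turnover of OMFP into fluorescent 3-O-methylfluorescein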
Chain of Serine/threonine-protein phosphatase PP1-alpha catalytic subunit (P62136 whole entry): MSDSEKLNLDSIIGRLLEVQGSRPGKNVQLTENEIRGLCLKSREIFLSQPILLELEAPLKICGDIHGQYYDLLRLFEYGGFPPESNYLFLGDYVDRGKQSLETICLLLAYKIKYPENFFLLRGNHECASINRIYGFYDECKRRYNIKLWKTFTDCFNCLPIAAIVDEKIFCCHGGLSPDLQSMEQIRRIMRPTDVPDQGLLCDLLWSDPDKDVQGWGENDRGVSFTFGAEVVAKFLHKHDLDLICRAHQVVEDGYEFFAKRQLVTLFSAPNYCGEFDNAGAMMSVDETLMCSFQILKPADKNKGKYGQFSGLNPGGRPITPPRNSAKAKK

Melanocortin receptor 4 = Melanocortin receptor 4 (Homo sapiens, UniProt P32245); assay: MC4R antagonist potency on cAMP, dose response, cell-based, TR-FRET, biased antagonists (AID 602298); format: functional;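 note: antagonist potency against agonist-stimulated cAMP production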
Chain of Melanocortin receptor 4 (P32245 whole entry): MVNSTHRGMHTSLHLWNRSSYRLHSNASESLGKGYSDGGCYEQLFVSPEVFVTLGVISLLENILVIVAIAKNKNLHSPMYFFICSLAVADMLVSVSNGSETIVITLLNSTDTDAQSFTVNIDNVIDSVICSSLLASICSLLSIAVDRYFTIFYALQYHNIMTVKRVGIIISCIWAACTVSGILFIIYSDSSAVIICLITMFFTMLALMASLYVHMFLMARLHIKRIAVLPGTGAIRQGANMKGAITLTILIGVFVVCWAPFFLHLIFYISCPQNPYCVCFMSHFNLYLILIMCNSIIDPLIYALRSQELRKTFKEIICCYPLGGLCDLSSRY

[3] = microbe, parasite or virus in culture; format: functional; conditions: Mycobacterium tuberculosis
[4] = nonselective inhibitors of cellular cAMP signaling, dose response, counter-screen for MC4R biased antagonist project, cell-based, TR-FRET cAMP detection (AID 602305); format: functional;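 note: U2OS cells stimulated with forskolin near its EC80 as the cAMP inducer; potency is for inhibition of forskolin-stimulated cAMP signaling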
[5] = biological target: Heat shock protein HSP 90-alpha (Homo sapiens, UniProt P07900); format: functional, organism-based
Vero = assay: cells; format: functional; conditions: Chlorocebus sabaeus
INS1 = assay: beta cell apoptosis inhibitors, cytokine rescue, dose response, luminescence, retest (AID 449756); format: functional, cell-based; conditions: Rattus norvegicus;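 note: cell death triggered by IL-1 beta plus TNF-alpha plus IFN-gamma mixture; protective hits raise ATP signal compared with cytokine alone wells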
[6] = system: Streptococcus sp. 'group A'; assay: growth inhibition of control SK(-) GAS strain, dose response, counter-screen for streptokinase expression inhibitor project, luminescence, kanamycin, BacTiterGlo, confirmation (AID 1900); format: functional, organism-based
Streptococcus [7] = assay: Group A Streptococcus viability loss, dose response, counter-screen for streptokinase expression inhibitor project, luminescence, BacTiterGlo (AID 1915); format: functional, organism-based;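 note: potency for reduction of bacterial viability or growth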
Streptococcus [8] = assay: Luminescence Microorganism-Based Dose Response Follow up to Identify Compounds Cytotoxic to Streptococcus. [Related pubchem assays: 1677 (Project Summary), 1915, 1914, 1902 (Retest at Dose), 1900 (Counter Screen), 1662 (Primary HTS)]; format: functional, organism-based
Streptokinase A = biological target: T2, Streptokinase A (Streptococcus pyogenes serotype M1, UniProt P10520); assay: S. pyogenes streptokinase expression inhibitors, potency, dose response, plasminogen activation absorbance, OD405 (AID 1914); format: functional, Streptococcus pyogenes M1 GAS;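 note: secreted streptokinase activity via plasminogen activation per viability signal from cell pellet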
T2 sequence (P10520 whole entry): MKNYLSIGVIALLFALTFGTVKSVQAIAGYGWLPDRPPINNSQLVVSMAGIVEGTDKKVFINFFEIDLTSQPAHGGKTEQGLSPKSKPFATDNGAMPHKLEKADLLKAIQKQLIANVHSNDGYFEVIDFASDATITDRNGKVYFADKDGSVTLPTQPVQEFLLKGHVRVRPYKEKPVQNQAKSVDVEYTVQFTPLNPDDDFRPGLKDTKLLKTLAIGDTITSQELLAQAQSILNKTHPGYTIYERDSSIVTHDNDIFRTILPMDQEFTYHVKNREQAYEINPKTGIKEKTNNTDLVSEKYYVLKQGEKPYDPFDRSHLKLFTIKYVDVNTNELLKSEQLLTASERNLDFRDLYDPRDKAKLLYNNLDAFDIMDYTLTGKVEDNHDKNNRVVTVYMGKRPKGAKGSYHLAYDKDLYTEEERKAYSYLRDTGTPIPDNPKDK

HEK293 = assay: Fluorescence-based counterscreen for potentiators or agonists of NPY-Y1: cell-based high-throughput dose response assay for inhibitors of cyclic nucleotide gated ion channel (CNGC) activity. In this assay, the parental HEK293 cell line transfected with a cyclic-nucleotide gated ion channel (CNGC)-based cAMP sensor is used to measure inhibition of isoproterenol-induced CNGC …; format: functional; conditions: Homo sapiens
[9] = biological target: T3, Neuropeptide Y receptor type 1 (Homo sapiens, UniProt P25929); assay: Fluorescence-based dose response cell-based high-throughput screening assay for agonists of NPY-Y1. [Related pubchem assays: 1697 (Screening assay (NPY-Y1 agonists).), 1359 (Screening assay (NPY-Y2 potentiators or agonists).), 1304 (Screening assay (NPY-Y1 potentiators or agonists).), 1704 (Screening assay (CNGC inhibitors).), 1791 (Summary AID.)]; format: functional
T3 sequence (P25929 whole entry): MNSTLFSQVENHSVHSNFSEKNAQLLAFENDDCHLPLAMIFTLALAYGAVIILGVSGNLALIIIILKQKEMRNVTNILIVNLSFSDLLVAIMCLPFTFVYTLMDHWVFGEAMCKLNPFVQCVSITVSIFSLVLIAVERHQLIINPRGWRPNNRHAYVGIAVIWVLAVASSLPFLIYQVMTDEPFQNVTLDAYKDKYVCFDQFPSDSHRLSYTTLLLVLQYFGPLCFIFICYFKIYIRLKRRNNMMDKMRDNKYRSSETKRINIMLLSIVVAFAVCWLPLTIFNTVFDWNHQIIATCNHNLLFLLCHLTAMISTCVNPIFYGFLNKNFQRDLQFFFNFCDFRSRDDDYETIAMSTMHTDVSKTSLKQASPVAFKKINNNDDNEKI

[10] = biological target: T4, Neuropeptide Y receptor type 2 (Homo sapiens, UniProt P49146); assay: Fluorescence-based counterscreen for agonists of NPY-Y1: cell-based high-throughput dose response assay for agonists of NPY-Y2.; format: functional
T4 sequence (P49146 whole entry): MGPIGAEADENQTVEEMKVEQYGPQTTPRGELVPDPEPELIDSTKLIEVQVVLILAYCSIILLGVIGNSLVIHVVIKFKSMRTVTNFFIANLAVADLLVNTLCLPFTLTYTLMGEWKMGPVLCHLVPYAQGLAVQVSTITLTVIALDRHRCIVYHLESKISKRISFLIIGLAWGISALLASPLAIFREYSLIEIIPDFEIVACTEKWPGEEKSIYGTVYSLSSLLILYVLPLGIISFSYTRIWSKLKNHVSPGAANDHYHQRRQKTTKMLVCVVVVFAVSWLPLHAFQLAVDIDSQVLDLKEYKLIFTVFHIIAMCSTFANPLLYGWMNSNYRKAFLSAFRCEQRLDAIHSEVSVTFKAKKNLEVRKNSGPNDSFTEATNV

[11] = biological target: Metabotropic glutamate receptor 4 (Rattus norvegicus, UniProt P31423); assay: Modulation of the Metabotropic Glutamate Receptor mGluR4: Rat PAM Potency. [Related pubchem assays (depositor defined):AID2437, AID2807]; format: functional
Chain of Metabotropic glutamate receptor 4 (P31423 whole entry): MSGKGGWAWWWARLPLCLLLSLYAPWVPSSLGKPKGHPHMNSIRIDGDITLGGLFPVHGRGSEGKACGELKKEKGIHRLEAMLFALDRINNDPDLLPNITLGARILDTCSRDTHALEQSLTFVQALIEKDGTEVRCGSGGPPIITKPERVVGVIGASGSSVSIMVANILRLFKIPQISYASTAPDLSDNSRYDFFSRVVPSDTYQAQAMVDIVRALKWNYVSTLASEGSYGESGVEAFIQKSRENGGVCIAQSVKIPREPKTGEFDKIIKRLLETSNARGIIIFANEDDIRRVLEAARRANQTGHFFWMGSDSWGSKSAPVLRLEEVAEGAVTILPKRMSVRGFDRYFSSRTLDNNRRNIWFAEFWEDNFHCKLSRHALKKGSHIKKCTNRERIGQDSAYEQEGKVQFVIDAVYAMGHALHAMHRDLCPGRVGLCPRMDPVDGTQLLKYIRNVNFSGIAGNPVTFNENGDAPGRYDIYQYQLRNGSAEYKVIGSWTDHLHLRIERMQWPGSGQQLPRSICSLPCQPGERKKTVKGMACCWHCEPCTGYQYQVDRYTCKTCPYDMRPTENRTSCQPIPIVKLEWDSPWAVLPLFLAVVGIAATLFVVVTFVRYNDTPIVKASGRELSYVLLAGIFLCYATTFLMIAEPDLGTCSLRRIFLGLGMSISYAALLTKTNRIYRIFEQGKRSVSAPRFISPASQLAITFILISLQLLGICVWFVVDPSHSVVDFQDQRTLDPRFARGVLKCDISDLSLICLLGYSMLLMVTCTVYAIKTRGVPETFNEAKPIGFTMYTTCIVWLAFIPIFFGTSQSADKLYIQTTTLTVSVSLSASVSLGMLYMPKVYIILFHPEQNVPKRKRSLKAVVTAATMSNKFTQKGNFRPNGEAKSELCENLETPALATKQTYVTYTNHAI

[12] = biological target: Scavenger receptor class B member 1 (Mus musculus, UniProt Q61009); assay: inhibitors of SR-BI mediated HDL lipid uptake, dose response, ldlA[mSR-BI] cells, fluorescence, cherry pick (AID 493194); format: functional, cell-based;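 note: cellular uptake of fluorescent DiI-labeled HDL measured as cell fluorescence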
Chain of Scavenger receptor class B member 1 (Q61009 whole entry): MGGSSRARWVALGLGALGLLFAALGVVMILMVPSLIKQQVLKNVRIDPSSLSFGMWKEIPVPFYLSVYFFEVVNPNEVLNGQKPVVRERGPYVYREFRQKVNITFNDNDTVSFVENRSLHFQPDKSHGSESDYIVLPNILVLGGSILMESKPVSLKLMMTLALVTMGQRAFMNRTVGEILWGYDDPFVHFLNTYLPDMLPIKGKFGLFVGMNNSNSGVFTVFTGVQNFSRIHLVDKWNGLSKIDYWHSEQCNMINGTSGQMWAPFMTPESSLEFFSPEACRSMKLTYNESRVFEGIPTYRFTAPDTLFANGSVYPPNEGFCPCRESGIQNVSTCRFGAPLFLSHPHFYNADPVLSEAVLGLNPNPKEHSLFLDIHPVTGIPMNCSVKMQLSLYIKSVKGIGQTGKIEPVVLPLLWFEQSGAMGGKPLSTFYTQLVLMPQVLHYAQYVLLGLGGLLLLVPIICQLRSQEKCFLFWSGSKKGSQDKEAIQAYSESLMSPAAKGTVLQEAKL

C=CCSc1nnc2nc3c(nn12)c1cc(C)ccc1n3CC=C
IC50 (Bcl-2-like protein 10): > 100 µM (inactive)

CC1=NOC(=O)/C1=C/c1ccc(-c2ccc(Cl)cc2)o1
IC50 (Protein skinhead-1): 62.2 µM (inactive) | IC50 [1]: > 67 µM (not active) | IC50 [2]: 6.86 µM (active) | IC50 (Melanocortin receptor 4): 8.05 µM (active) | CC50 [3]: > 40 µM (active) | IC50 [4]: 13.4 µM (inactive) | AC50 [5]: 2.08 µM (active) | CC50 (Vero): > 25 µM (active) | AC50 (INS1): 6.76 µM (active)

O=[N+]([O-])c1ccc(Nc2nc(NCCO)nc(N3CCCC3)n2)cc1
EC50 [6]: 6.68 µM (active) | EC50 (Streptococcus [7]): > 150 µM (not active) | EC50 (Streptococcus [8]): 54.3 µM (active) | EC50 (Streptokinase A): 7.48 µM (active)

OC(CNC1Cc2ccccc2C1)COc1ccc(Cl)cc1 (centres undefined)
IC50 (HEK293): > 3.94 µM (active) | EC50 [9]: 11.6 µM (not active) | EC50 [10]: > 35.4 µM (not active)

O=C(Nc1ccc(NC(=O)c2ccccc2Cl)c(Cl)c1)c1ccccn1
EC50 [11]: 0.75 µM (active)

COc1cc(OC)cc(C(=O)Nc2cccc(NC(=O)c3cc(OC)cc(OC)c3)n2)c1
AC50 [12]: 45.9 µM (active)
